# Data published in PMC8583849 (International Journal of Molecular Sciences, 2021).
# Read-outs that look alike come from different tables or passages of the source. Peptide text beside a SMILES is read from it. * marks the point of attachment. Cbz = O=C(OCc1ccccc1)*
# What was measured:
# Mpro = assay: Thermostability assay (TSA); type: binding, SARS-CoV-2; conditions: 1 μM protein, normalized with DMSO
# Experimental: A reaction mixture containing the protein at 1 μM final concentration and increasing molar excesses of MG-132 (1×, 3×, 10×, 20×, and 50×) was tested. In each well: 20 μL of buffer 5×, 2 μL of protein stock, the volume of MG-132 stock needed for the fixed molar excess, and Milli-Q H2O to reach 99 μL was added. The protein was left in incubation with the compound for 30 min at room temperature. The plate was put on ice, and 1 μL of 500 × SYPRO orange (Thermo Fischer Scientific) was added in each well. The plate was sealed and centrifuged at 200× g and 4 °C for 1 min. The melting curves were measured in a RT-PCR (Eppendorf, Milan, Italy). After a stationary phase of 2 min at 25 °C, the temperature was increased by 0.5 °C every 30 s until the maximum of 95 °C was reached. Fluorescence has been measured at each step. Each condition has been reproduced in tripled. The Tm control with the protein and the equivalent volume of DMSO only was assessed as well.
# Cathepsin-L [1] = target: T1, Cathepsin-L (Homo sapiens, UniProt P07711); assay: Cathepsin-L Inhibitor Screening Kit (Fluorometric); type: biochemical
# T1 construct: purchased BPS Bioscience 79591
# T1 sequence (P07711 114-333): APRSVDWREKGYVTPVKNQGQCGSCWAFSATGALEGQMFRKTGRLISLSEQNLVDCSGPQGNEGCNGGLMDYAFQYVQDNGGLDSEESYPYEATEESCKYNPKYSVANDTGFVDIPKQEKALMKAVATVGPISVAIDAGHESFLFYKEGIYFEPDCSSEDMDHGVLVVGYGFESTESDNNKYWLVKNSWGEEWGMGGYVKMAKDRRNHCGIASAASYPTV
# Experimental: The effect of MG-132 on Cathepsin-L activity was measured using the Cathepsin-L Inhibitor Screening Kit (Fluorometric) (BPS Bioscience #79591, San Diego, CA, USA). The assay is based on the Cathepsin-L mediated cleavage of a synthetic fluorogenic substrate. Generated AFC is measured on a fluorescence microplate reader. The assay was performed according to the manufacturer protocol but adapted to 384-well format with a final volume of 10 μL. Briefly, compounds (stock in 100% v/v DMSO) are transferred in black 384-well microplates by acoustic dispensing (Echo, Labcyte, Beckman Coulter); 5 µL of diluted Cathepsin-L is added and incubated for 30 min at RT. The enzymatic reaction is initiated by the addition of 5 µL of the substrate. The fluorescence signal is detected in a kinetic mode for 15 min at 37 °C using Ex/Em = […] (Envision, PerkinElmer). Final assay concentrations were: Cathepsin-L 0.01 ng/μL, substrate 5 μM. E-64 provided in the kit was used as a positive control for Cathepsin-L inhibition and assay validation. DMSO was used as compound solvent control (0% inhibition).
# [2] = tested on: T2, SARS-CoV-2 protease PLpro; assay: Activity towards PLpro; type: biochemical; conditions: paper in preparation
# T2 construct: the papain-like protease (PLpro; nsp3)
# Text: Knowing the role of MG-132 in inhibition of the proteasome and representatives of Cathepsin and Calpain proteases, we investigated its role in the inhibition of Cathepsin-L, one of the key enzymes needed for the entry of SARS-CoV-2. Previously, we reported the anti-cytopathic activity of MG-132 in SARS-CoV-2 infected Vero-E cells [see CHEMBL Entry https://www.ebi.ac.uk/chembl/document_report_card/CHEMBL4495565/, accessed on 28 October 2021]. The results were confirmed by different groups reporting antiviral activity also in other cell lines like Huh-7 and Calu-3 all with sub-micromolar EC50 [39]. If we compare the antiviral activity in cells to the high IC50 measured against Mpro it is reasonable to assume that the effect on Mpro is probably too low to justify submicromolar cell activity, and thus it is supported by inhibition of host proteases. We have measured no activity towards the second SARS-CoV-2 protease PLpro (paper in preparation).
# [3] = tested on: SARS-CoV-2 main protease (Mpro); design: method as in PMID 35287429; conditions: read-out: IC50 in the Mpro enzymatic assay, cited from earlier work
# [4] = tested on: SARS-CoV-2 strain BetaCov/Belgium/GHB-03021/2020; design: method as in PMID 35287429; conditions: Vero-E6 cells infected by SARS-CoV-2; read-out: EC50, reduction of viral RNA (qPCR); cited from earlier work
# [5] = tested on: rat liver isolated Cathepsin-L; design: method as in PMID 18830882; conditions: cited from earlier work
# SARS-CoV-2 in Huh-7 = tested on: SARS-CoV-2 in Huh-7; design: method as in PMID 33811811; conditions: Huh-7 cells; cited from earlier work
# SARS-CoV-2 in Calu-3 = tested on: SARS-CoV-2 in Calu-3; design: method as in PMID 33811811; conditions: Calu-3 cells; cited from earlier work
# Cathepsin-L [6] = tested on: Cathepsin-L; design: method as in https://www.apexbt.com/e-64.html; conditions: ref https://www.apexbt.com/e-64.html; read-out: IC50, Cathepsin-L inhibition, literature value; cited from earlier work
compound,measurement,setting,value
CC(C)C[C@@H](C=O)NC(=O)[C@H](CC(C)C)NC(=O)[C@H](CC(C)C)NC(=O)OCc1ccccc1 [MG-132] (Cbz-Leu-Leu-Leu-aldehyde),ΔTm,Mpro; 50 molar excess of inhibitor,3.5 °C
same,ΔTm,Mpro; one molar excess of inhibitor,0.5 °C
same,IC50,"Cathepsin-L [1]; IC50 (M), Cathepsin-L inhibition, fit values given in Figure 6",1.55e-10 M
same,IC50,"Cathepsin-L [1]; IC50, Cathepsin-L inhibition, Cathepsin-L 0.01 ng/μL, substrate 5 μM, 30 min incubation at RT",1.5e-10 M
same,"HillSlope, Cathepsin-L inhibition",Cathepsin-L [1]; fit values given in Figure 6,-1.826
same,"LogIC50, Cathepsin-L inhibition",Cathepsin-L [1]; fit values given in Figure 6,-9.811
same,activity towards PLpro,[2],no activity
same,IC50,[3],7.4 µM
same,IC50,[3]; with 1 mM DTT,4.7 µM
same,EC50,[4],100 nM
same,EC50,[5],163 nM
same,"EC50, antiviral activity",SARS-CoV-2 in Huh-7,sub-micromolar
same,"EC50, antiviral activity",SARS-CoV-2 in Calu-3,sub-micromolar
CC(C)C[C@H](NC(=O)[C@H]1O[C@@H]1C(=O)O)C(=O)NCCCCN=C(N)N [E64],IC50,"Cathepsin-L [1]; Cathepsin-L 0.01 ng/μL, substrate 5 μM, 30 min incubation at RT, read-out: IC50, Cathepsin-L inhibition",2.7e-09 M
same,"HillSlope, Cathepsin-L inhibition",Cathepsin-L [1]; fit values given in Figure 6,-2.040
same,"LogIC50, Cathepsin-L inhibition",Cathepsin-L [1]; fit values given in Figure 6,-8.560
same,IC50,"Cathepsin-L [1]; fit values given in Figure 6, read-out: IC50 (M), Cathepsin-L inhibition",2.75e-09 M
same,IC50,Cathepsin-L [6],2.5 nM
